Results as given in ChEMBL document CHEMBL1140672, “Design, synthesis, and evaluation of isoindolinone-hydroxamic acid derivatives as histone deacetylase (HDAC) inhibitors” (Bioorg Med Chem Lett, 2007).
Active and inactive are the calls of the source. No cut-off for these calls is given here.

Key:
PANC-1 [1] = experiment: Increase in p21WAF1/CIP1 gene expression in PANC1 cells at 0.1 uM after 48 hrs relative to control; assay type: functional, cell-based; conditions: Homo sapiens
PANC-1 [2] = experiment: Increase in p27kip1 gene expression in PANC1 cells after 48 hrs relative to control; assay type: functional, cell-based; conditions: Homo sapiens
PANC-1 [3] = experiment: Increase in p27kip1 gene expression in PANC1 cells after 24 hrs relative to control; assay type: functional, cell-based; conditions: Homo sapiens
PANC-1 [4] = experiment: Increase in p21WAF1/CIP1 gene expression in PANC1 cells after 24 hrs relative to control; assay type: functional, cell-based; conditions: Homo sapiens
PANC-1 [5] = experiment: Increase in p21WAF1/CIP1 gene expression in PANC1 cells 1 uM after 48 hrs relative to control; assay type: functional, cell-based; conditions: Homo sapiens
[6] = target: T1, Protein deacetylase HDAC6 (Homo sapiens, UniProt Q9UBN7); experiment: Inhibition of human HDAC6
T1 sequence (Q9UBN7 whole entry): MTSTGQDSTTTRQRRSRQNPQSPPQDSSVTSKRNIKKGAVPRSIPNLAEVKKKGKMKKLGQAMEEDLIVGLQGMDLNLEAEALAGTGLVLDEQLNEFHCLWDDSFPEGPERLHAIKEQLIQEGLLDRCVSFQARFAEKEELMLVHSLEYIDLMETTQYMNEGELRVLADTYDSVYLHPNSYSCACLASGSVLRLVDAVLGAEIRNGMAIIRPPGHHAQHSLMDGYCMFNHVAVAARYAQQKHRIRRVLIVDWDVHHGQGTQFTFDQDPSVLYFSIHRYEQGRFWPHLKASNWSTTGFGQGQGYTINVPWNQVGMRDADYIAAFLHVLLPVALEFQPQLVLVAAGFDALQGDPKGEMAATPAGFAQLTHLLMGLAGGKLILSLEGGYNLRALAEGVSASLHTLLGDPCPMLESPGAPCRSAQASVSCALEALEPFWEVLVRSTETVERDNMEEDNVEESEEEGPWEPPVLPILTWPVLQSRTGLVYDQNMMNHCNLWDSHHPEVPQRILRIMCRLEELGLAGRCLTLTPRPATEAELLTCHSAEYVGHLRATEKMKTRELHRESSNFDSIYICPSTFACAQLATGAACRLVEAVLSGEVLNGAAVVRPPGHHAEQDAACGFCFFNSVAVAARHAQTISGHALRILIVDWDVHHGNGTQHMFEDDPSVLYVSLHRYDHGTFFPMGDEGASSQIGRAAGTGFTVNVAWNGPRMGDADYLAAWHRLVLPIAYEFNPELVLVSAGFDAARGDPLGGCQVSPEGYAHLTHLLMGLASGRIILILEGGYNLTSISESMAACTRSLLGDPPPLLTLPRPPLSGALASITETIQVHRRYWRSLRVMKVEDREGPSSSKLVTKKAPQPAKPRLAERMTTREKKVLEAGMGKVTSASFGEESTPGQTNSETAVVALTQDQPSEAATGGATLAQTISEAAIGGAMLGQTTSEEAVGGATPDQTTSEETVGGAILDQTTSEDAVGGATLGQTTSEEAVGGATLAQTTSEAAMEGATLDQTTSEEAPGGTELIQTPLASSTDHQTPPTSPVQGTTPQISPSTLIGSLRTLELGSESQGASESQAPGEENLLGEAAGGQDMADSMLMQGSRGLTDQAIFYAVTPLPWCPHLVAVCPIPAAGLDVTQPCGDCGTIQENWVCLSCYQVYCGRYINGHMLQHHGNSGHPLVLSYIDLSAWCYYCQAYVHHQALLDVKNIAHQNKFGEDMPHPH

Histone deacetylase 4 = Histone deacetylase 4 (Homo sapiens, UniProt P56524); experiment: Inhibition of human HDAC4
Chain of Histone deacetylase 4 (P56524 whole entry): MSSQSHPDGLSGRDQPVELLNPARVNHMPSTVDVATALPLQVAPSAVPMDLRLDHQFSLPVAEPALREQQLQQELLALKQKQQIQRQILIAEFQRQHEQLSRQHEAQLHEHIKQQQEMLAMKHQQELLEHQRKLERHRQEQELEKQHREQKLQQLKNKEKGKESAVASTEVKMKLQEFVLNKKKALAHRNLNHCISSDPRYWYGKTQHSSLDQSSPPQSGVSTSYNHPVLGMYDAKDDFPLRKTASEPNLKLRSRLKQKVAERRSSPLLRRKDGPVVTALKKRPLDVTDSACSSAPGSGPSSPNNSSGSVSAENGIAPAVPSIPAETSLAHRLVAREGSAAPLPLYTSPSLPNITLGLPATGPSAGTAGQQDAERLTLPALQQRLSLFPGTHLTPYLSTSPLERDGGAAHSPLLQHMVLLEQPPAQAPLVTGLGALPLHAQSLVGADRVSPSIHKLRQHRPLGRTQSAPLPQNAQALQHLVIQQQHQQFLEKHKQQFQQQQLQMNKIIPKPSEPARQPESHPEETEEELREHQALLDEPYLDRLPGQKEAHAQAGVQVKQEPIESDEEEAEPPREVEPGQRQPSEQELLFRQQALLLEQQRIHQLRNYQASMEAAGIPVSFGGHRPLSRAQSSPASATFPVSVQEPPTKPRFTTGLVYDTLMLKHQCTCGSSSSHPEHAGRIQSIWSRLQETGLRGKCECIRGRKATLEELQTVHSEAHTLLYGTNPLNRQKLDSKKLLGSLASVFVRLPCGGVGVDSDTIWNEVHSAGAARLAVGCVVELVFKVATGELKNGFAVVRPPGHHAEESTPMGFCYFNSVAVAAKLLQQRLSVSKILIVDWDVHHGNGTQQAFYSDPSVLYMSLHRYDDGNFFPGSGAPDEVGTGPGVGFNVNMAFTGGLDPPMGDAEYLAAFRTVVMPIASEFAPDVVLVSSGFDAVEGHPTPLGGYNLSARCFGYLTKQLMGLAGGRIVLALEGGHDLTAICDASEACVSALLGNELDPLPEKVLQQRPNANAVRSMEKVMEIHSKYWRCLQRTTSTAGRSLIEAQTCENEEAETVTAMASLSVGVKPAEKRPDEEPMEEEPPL

Histone deacetylase 1 = Histone deacetylase 1 (Homo sapiens, UniProt Q13547); experiment: Inhibition of human HDAC1
Chain of Histone deacetylase 1 (Q13547 whole entry): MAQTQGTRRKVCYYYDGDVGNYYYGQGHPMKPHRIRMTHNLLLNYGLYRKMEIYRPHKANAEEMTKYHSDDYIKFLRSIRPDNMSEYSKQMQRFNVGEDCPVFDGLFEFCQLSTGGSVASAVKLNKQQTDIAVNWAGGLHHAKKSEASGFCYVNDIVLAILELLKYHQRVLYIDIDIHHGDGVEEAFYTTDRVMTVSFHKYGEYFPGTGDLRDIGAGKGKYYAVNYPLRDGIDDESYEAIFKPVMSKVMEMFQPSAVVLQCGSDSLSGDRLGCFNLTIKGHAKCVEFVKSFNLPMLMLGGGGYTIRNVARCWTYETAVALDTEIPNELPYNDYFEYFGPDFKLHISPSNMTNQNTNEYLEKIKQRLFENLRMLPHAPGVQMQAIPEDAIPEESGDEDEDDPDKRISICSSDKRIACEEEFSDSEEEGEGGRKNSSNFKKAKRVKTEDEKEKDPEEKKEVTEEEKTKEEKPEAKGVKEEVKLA

PT-45 = experiment: Antiproliferative activity against human drug-resistant PT45 cells; assay type: functional, cell-based
PANC-1 [7] = experiment: Antiproliferative activity against human PANC1 cells; assay type: functional, cell-based

Q: For `O=C(CCCCCCC(=O)Nc1ccccc1)NO`, which Activity (PANC-1 [1]) is on record?
A: The Activity was “Active”.

Q: What about the Activity (PANC-1 [2]) of the same molecule?
A: The Activity was “inactive”.

Q: What about the Activity (PANC-1 [3]) of the same molecule?
A: Its Activity is “inactive”.

Q: What about the Activity (PANC-1 [4]) of the same molecule?
A: The Activity was “Active”.

Q: With `O=C(/C=C/c1ccc2c(c1)C(=O)N(Cc1ccc(-c3cccnc3)cc1)C2)NO` as the molecule, how does the Activity (PANC-1 [5]) read?
A: The Activity was “Active”.

Q: And the Activity (PANC-1 [1])?
A: The Activity was “Active”.

Q: What about the IC50 [6] of the same molecule?
A: Its IC50 is 0.28 µM.

Q: What about the IC50 (Histone deacetylase 4) of the same molecule?
A: The IC50 was 0.056 µM.

Q: What about the Activity (PANC-1 [2]) of the same molecule?
A: The Activity was “inactive”.

Q: What about the IC50 (Histone deacetylase 1) of the same molecule?
A: The IC50 was 0.092 µM.

Q: And the Activity (PANC-1 [3])?
A: Its Activity is “inactive”.

Q: And the IC50 (PT-45)?
A: Its IC50 is 0.2 µM.

Q: What about the IC50 (PANC-1 [7]) of the same molecule?
A: Its IC50 is 0.035 µM.

Q: With `O=C(/C=C/c1ccc2c(c1)C(=O)N(Cc1ccc(-c3ccncc3)cc1)C2)NO` as the molecule, how does the IC50 [6] read?
A: The IC50 was 15 µM.

Q: And the IC50 (Histone deacetylase 4)?
A: The IC50 was 2.1 µM.

Q: What about the IC50 (Histone deacetylase 1) of the same molecule?
A: Its IC50 is 3.3 µM.

Q: Which results are given for `O=C(/C=C/c1ccc2c(c1)C(=O)N(Cc1ccc(-c3ccccc3)cc1)C2)NO`?
A: IC50 [6]: 0.75 µM; IC50 (Histone deacetylase 4): 0.098 µM; IC50 (Histone deacetylase 1): 0.22 µM; IC50 (PT-45): 0.3 µM; IC50 (PANC-1 [7]): 0.15 µM

Q: For `O=C(/C=C/c1ccc2c(c1)C(=O)N(Cc1ccccc1)C2)NO`, which IC50 [6] is on record?
A: Its IC50 is 0.23 µM.

Q: And the IC50 (Histone deacetylase 4)?
A: The IC50 was 0.22 µM.

Q: What about the IC50 (Histone deacetylase 1) of the same molecule?
A: Its IC50 is 0.25 µM.

Q: For `CC(C)(C)c1ccc(CN2Cc3ccc(/C=C/C(=O)NO)cc3C2=O)cc1`, which IC50 [6] is on record?
A: The IC50 was 0.99 µM.

Q: And the IC50 (Histone deacetylase 4)?
A: Its IC50 is 0.18 µM.

Q: What about the IC50 (Histone deacetylase 1) of the same molecule?
A: The IC50 was 0.23 µM.
